The structures appear in SMILES notation. Converted amounts (≈) assume the structure as drawn.

This assay addresses T1, α-glucosidase.
T1 construct: gene MAL12; PDB 3A4A isomaltase is only a docking homologue
Kind of assay: pNPG hydrolysis, absorbance […] nm. In kind it is biochemical, Saccharomyces cerevisiae. The conditions noted are these: 5 mM p-NPG stock (100 µL of 250 µL), 0.1 M phosphate buffer pH 6.8, 37 °C, 10 min preincubation.

As a reminder, the IC50 is the concentration at which inhibition is half-maximal. High values mean a need for much substance, low ones inhibition by little substance. As to `O=C1c2c(O)cc(O)cc2O[C@H](c2cc(O)c(O)c(O)c2)[C@H]1O` [dihydromyricetin], the IC50 stood at 114.45 ± 0.31 µg/mL (≈ 357 µM).
On to `C[C@@H]1O[C@@H](OC[C@H]2O[C@@H](Oc3c(-c4ccc(O)cc4)oc4cc(O)cc(O)c4c3=O)[C@H](O)[C@@H](O)[C@@H]2O)[C@H](O)[C@H](O)[C@H]1O` [kaempferol-3-O-rutinoside], for which the IC50 stood at 447.50 ± 17.27 µg/mL (≈ 753 µM).

The values are drawn from paper PMC6943536, “Free and Bound Phenolics of Buckwheat Varieties: HPLC Characterization, Antioxidant Activity, and Inhibitory Potency towards α-Glucosidase with Molecular Docking Analysis” (Antioxidants, 2019).
